The subject of data set [1] is whole TMJ discs. Description: alamarBlue metabolic activity of whole TMJ discs. The class given is cell-based, Yorkshire pigs. Conditions: Slow-frozen (Me2SO 10% v/v). As to the method: (§1) Following the completion of the warming and unloading steps, all tissues were subjected to recovery in DMEM supplemented with 1% P/S (e.g., DMEM/P/S) for one hour within a 37° C. incubator. Subsequently, the alamarBlue assay was conducted to assess the metabolic activity of tissues. This assay employs a water soluble fluorometric viability indicator, relying on the detection of metabolic activity. […] In the case of each meniscal specimen and each TMJ disc, evaluations were carried out both before and after different preservation treatments. For the whole meniscus, each fresh, slow-frozen, or vitrified sample underwent manual sectioning into sagittal sections, each measuring 1-2 mm in thickness, spanning from anterior to posterior horn. Within each region, a minimum of three sections were obtained.
(§2) Either each individual specimen or each section of the whole meniscus was incubated in 1 ml of DMEM/P/S and 100 μl alamarBlue reagent. This process was carried out under standard cell culture conditions for 3 hours. In contrast, each whole TMJ disc was incubated in 5.4 ml of DMEM/P/S and 600 μl alamarBlue reagent under standard cell culture conditions for 4 hours. Subsequently, fluorescence measurements were conducted in duplicate using a multimode microplate reader at an excitation wavelength of 544 nm and an emission wavelength of 590 nm. Following assessment, each sample was rinsed with DMEM/P/S for 30 mins to remove the alamarBlue reagent prior to proceeding with subsequent measurements. The time-course viability from day 0 to day 4 for each sample was assessed. In the case of meniscal specimens and whole TMJ discs, the results (expressed in relative fluorescence unit, RFU) of the slow-frozen and vitrified groups were normalized to the measurements taken from their respective fresh samples before any preservation treatments were applied. For the measurements of the whole meniscus, the results (expressed as RUF/mg of dry weight) from the slow-frozen and vitrified menisci were normalized to the corresponding values of fresh menisci within the same batch. Dry weight values of samples were measured using an analytical balance after being placed in a 60° C. oven over 48 hours subsequent to the completion of the time-course alamarBlue assay.
Background: Resazurin is reduced to fluorescent resorufin, in cell work by metabolically active cells.

The conditions of data set [2]: 6.5M, porcine articular cartilage, ref [5], cited from earlier work.
The test system of data set [3] is whole menisci. Description: Fluorescence live/dead viability of whole menisci. The class given is cell-based, Yorkshire pigs. Conditions: for Viability (%): whole menisci, SF (slow-frozen in Me2SO 10% v/v). As to the method:
(§3) Tissue viability was assessed by fluorescence live/dead staining. Each cylindrical specimen was longitudinally divided into two sections for imaging along the sagittal plane. To comprehensively assess the whole meniscus, both transverse and sagittal sections were prepared. In the case of transverse sections, a 300 μm thick slice of the whole meniscus was obtained using a vibrating blade microtome due to its larger surface area. For sagittal sections, approximately 1-2 mm thick slices were manually cut from corresponding regions. For the TMJ disc samples, strips measuring 6 mm in width, encompassing the anterior, central, posterior, medial, and lateral regions, were manually excised from the whole disc using a scalpel. All cut meniscal slices were immersed in DMEM with 1% P/S culture medium with 4 μM calcein AM and 2 μM ethidium homodimer-1 at room temperature for 2 hours before imaging. In contrast, the TMJ slices underwent staining with distinct dye concentrations: 2 µM calcein AM and 4 μM ethidium homodimer-1, following the same set of conditions. The green-fluorescent calcein indicates living cells by intracellular esterase activity, while the red-fluorescent ethidium homodimer-1 indicates dead cells by loss of plasma membrane integrity. All images were captured using an inverted multiphoton laser scanning microscope. The excitation wavelength was set as 800 nm. Green fluorescence was collected within the 495-540 nm range, and red fluorescence was collected in the 575-630 nm range. Images were taken at a depth of 60 μm below the tissue surface. The whole transverse section images of the whole menisci and the whole sagittal section images of the TMJ disc strips were captured using a 4× objective magnification and stitched together. An interesting view of each region was imaged using a higher objective magnification of 10×. All sagittal section images for meniscal specimens, three primary regions of whole menisci, and five primary regions of whole TMJ discs were captured using a 10× objective magnification for quantitative analysis. Live/dead quantification of 3.5 mm thick specimens was performed within the middle layer image (with a thickness of 1.26 mm) to avoid the count of dead cells on both surfaces associated with manual sectioning. In the context of sagittal sections in each region of the whole meniscus, images were acquired, and cell viability was quantified for the inner, middle, and outer layers. Images of sagittal sections in each region of the TMJ disc were acquired and used for viability quantification. Live/dead quantification was performed using software. Cell viability was defined as the proportion between the count of viable cells and the total cell count (comprising both live and dead cells).

Data set [4] relates to whole menisci. In words: alamarBlue metabolic activity of whole menisci. The class given is cell-based, Yorkshire pigs. As to the method:
as §1, §2

The conditions of data set [5]: articular cartilage of calves, 22° C.; 3.1M Me2SO, 3.1M PG, 2.2M formamide; ref [4]; cited from earlier work.
The conditions of data set [6]: 1.4M, tissue-engineered collagen scaffold, 20° C.; ref [7]; cited from earlier work.
The conditions of data set [7]: human articular cartilage, ref [6], cited from earlier work.
For data set [8], the system named is whole TMJ discs. In words: Fluorescence live/dead viability of whole TMJ discs. Conditions: for Viability (%): Slow-frozen (Me2SO 10% v/v). The class given is cell-based, Yorkshire pigs. As to the method: as §3
Data set [9] can be described thus: alamarBlue metabolic activity of meniscal specimens. The settings on record: 3.5 mm/SF: 3.5 mm specimens slow-frozen in Me2SO (10% v/v), normalized to specimen before treatment. The class given is cell-based, Yorkshire pigs. As to the method:
as §1, §2

The values that follow come from US20250248391A1, “VIABLE VITREOUS GRAFTS FOR PRESERVATION AND RECOVER OF TISSUE FOR TRANSPLANT AND CLINICAL USE” (Clemson University Research Foundation, priority 2024, published 2025).

Each structure is given as a SMILES string. Where two headings read alike, the source gives them in different places.

Turning to `C[S+](C)[O-]` [Me2SO, dimethyl sulfoxide], the “Metabolic activity, Viability (%)” value amounted to 32.0 ± 0.8% in the data set on whole TMJ discs [1] (Day 0 post-warming, relative to respective fresh values); 33.3 ± 0.5% in the data set with whole TMJ discs [1] (Day 1, relative to respective fresh values); 28.9 ± 0.5% in the data set with whole TMJ discs [1] (Day 2, relative to respective fresh values); 29.1 ± 1.7% in the data set with whole TMJ discs [1] (Day 3, relative to respective fresh values); 28.0 ± 0.6% with whole TMJ discs [1] (Day 4, relative to respective fresh values); 32.9 ± 11.1% in the data set with whole menisci [4] (Anterior: SF (slow-frozen in Me2SO 10% v/v), Day 0 post-warming, normalized to fresh menisci day 0). Also, the “Metabolic activity, Viability (%)” value in the data set on whole menisci [4] (Anterior: SF (slow-frozen in Me2SO 10% v/v), Day 1, normalized to fresh menisci day 0) is recorded as 39.7 ± 10.1%; in the data set with whole menisci [4] (Anterior: SF (slow-frozen in Me2SO 10% v/v), Day 2, normalized to fresh menisci day 0), 31.4 ± 7.8%; in the data set on whole menisci [4] (Anterior: SF (slow-frozen in Me2SO 10% v/v), Day 3, normalized to fresh menisci day 0), 34.0 ± 6.9%; in the data set on whole menisci [4] (Anterior: SF (slow-frozen in Me2SO 10% v/v), Day 4, normalized to fresh menisci day 0) it was 36.7 ± 7.5%; with whole menisci [4] (Central: SF (slow-frozen in Me2SO 10% v/v), Day 0 post-warming, normalized to fresh menisci day 0), 43.1 ± 13.8%; with whole menisci [4] (Central: SF (slow-frozen in Me2SO 10% v/v), Day 1, normalized to fresh menisci day 0), 55.4 ± 16.8%. In addition, the “Metabolic activity, Viability (%)” value in the data set with whole menisci [4] (Central: SF (slow-frozen in Me2SO 10% v/v), Day 2, normalized to fresh menisci day 0) is recorded as 35.1 ± 11.4%; with whole menisci [4] (Central: SF (slow-frozen in Me2SO 10% v/v), Day 3, normalized to fresh menisci day 0), 37.3 ± 9.6%; with whole menisci [4] (Central: SF (slow-frozen in Me2SO 10% v/v), Day 4, normalized to fresh menisci day 0), 35.3 ± 11.4%; in the data set with whole menisci [4] (Posterior: SF (slow-frozen in Me2SO 10% v/v), Day 0 post-warming, normalized to fresh menisci day 0) it was 38.0 ± 9.3%; in the data set on whole menisci [4] (Posterior: SF (slow-frozen in Me2SO 10% v/v), Day 1, normalized to fresh menisci day 0) it was 47.1 ± 7.2%; in the data set on whole menisci [4] (Posterior: SF (slow-frozen in Me2SO 10% v/v), Day 2, normalized to fresh menisci day 0), 34.9 ± 7.3%. Besides, the “Metabolic activity, Viability (%)” value is given as 42.4 ± 7.4% in the data set on whole menisci [4] (Posterior: SF (slow-frozen in Me2SO 10% v/v), Day 3, normalized to fresh menisci day 0); 45.7 ± 13.5% in the data set with whole menisci [4] (Posterior: SF (slow-frozen in Me2SO 10% v/v), Day 4, normalized to fresh menisci day 0); 47.0 ± 16.4% in data set [9] (Day 0 post-warming); 43.0 ± 21.0% in data set [9] (Day 1); 39.0 ± 19.8% in data set [9] (Day 2); 39.5 ± 16.3% in data set [9] (Day 3). Also, the “Metabolic activity, Viability (%)” value in data set [9] (Day 4) is recorded as 52.6 ± 14.5%. The “D (× 10^−10 m^2/s)” value in [2] (4° C.) is 2.4 × 10^−10 m^2/s; in [2] (22° C.) it was 3.0 × 10^−10 m^2/s; in data set [2] (37° C.), 4.5 × 10^−10 m^2/s; in [5], 4.63 ± 0.85 × 10^−10 m^2/s; in data set [6], 2.4 × 10^−10 m^2/s; in data set [7] (1.4M, 4° C.), 6.1 × 10^−10 m^2/s. Moreover, the “D (× 10^−10 m^2/s)” value in [7] (1.4M, 27° C.) is 14.4 × 10^−10 m^2/s; in [7] (14M, 4° C.) it was 3.1 × 10^−10 m^2/s; in data set [7] (14M, 27° C.), 6.8 × 10^−10 m^2/s. In addition, the “viability in whole menisci, average” value with whole menisci [3] (slow freezing (Me2SO 10% v/v)) is given as approximately 21.6%. Further, the “Viability (%)” value worked out at 19.5 ± 9.6% with whole menisci [3] (Anterior region); 23.7 ± 6.4% in the data set with whole menisci [3] (Central region); 20.3 ± 13.8% in the data set with whole menisci [3] (Inner layer of sagittal sections); 20.8 ± 8.9% with whole menisci [3] (Middle layer of sagittal sections); 24.6 ± 16.9% with whole menisci [3] (Outer layer of sagittal sections); 21.4 ± 18.2% with whole menisci [3] (Posterior region). For the same compound, the “Viability (%)” value turned out to be 37.4 ± 2.7% in the data set with whole TMJ discs [8] (Anterior); 40.1 ± 4.2% in the data set with whole TMJ discs [8] (Central); 39.0 ± 2.7% in the data set on whole TMJ discs [8] (Lateral); 38.3 ± 3.5% in the data set on whole TMJ discs [8] (Medial); 37.1 ± 2.2% with whole TMJ discs [8] (Posterior). For the same compound, in the data set on whole TMJ discs [8] (slow-frozen samples (Me2SO 10% v/v)), the viability entry was “less than 40%”.
Consider `CC(O)CO` (stereo not shown) [PG, propylene glycol], for which the “D (× 10^−10 m^2/s)” value in data set [2] (4° C.) is listed as 0.9 × 10^−10 m^2/s; in data set [2] (22° C.), 1.6 × 10^−10 m^2/s; in data set [2] (37° C.) it was 2.2 × 10^−10 m^2/s; in data set [5] it was 3.47 ± 0.67 × 10^−10 m^2/s.
With `NC=O` [formamide], the “D (× 10^−10 m^2/s)” value in data set [5] was 6.67 ± 0.70 × 10^−10 m^2/s.
